Laboratory results published in patent publication US11124490B2, “Autotaxin inhibitors” (UNIVERSITY OF TENNESSEE RESEARCH FOUNDATION, priority 2016, dated 2021).
Where “and” joins values, the source holds several entries; their conditions need not be identical. Identical values can stand only once.

Experiments:
human recombinant ATX [1] = target: T1, human recombinant ATX (Homo sapiens (Human), UniProt Q13822); experiment: ATX inhibition, hydrolysis of nucleotide substrate pNP-TMP; format: biochemical; conditions: 1 mM pNP-TMP, 4 nM ATX, compound 0 to 1 μM
Description: (§1) ATX Generation: Human recombinant ATX was expressed as published previously, using Sf9 Spodoptera frugiperda ovary cells (Invitrogen, Carlsbad, Calif.).^13 Suspension cells were grown to a 1 liter quantity at a concentration of 1×10^6 cells/ml in Sf-900 III serum-free medium (Invitrogen) supplemented with 50 U/ml penicillin and 50 μg/ml streptomycin at 27° C. with agitation. Cells were then infected with high-titer baculovirus generated via Bac-to-Bac Baculovirus Expression System (Invitrogen) using the pCMV5 mammalian expression vector containing the C-terminal FLAG-tagged human ATX sequence (a generous gift from Dr. Junken Aoko, ohoku University, Aoba-ku, Sendai, Japan) subcloned into the pFastBacl transfer vector. […] Resultant ATX was then concentrated via centrifugation in Amicon Ultra 30,000 molecular weight cut off filter units (Millipore, Billerica, Mass.) and subsequent buffer exchange into storage buffer comprised of 50 mM Tris, pH 7.4 with 20% (v/v) ethylene glycol. Protein was held at −80° C. for long-term storage.
(§2) ATX Inhibition: ATX activity was assessed via hydrolysis of the synthetic, lipid-like FRET-based substrate FS-3 (Echelon Biosciences, Salt Lake City, Utah) or via hydrolysis of the nucleotide substrate p-nitrophenyl thymidine 5′-monophosphate (pNP-TMP) as described previously.^2 Reaction wells were loaded in 60 μl volumes in triplicate wells of half-area, black-wall 96-well plates in assay buffer consisting of 50 mM Tris, 140 mM NaCl, 5 mM KCl, 1 mM CaCl2, 1 mM MgCl2, […] BSA, pH 8.0. […] Fluorescence was read every 2 minutes for 1 hour at excitation/emission wavelengths of 485/528 nm for FS-3 hydrolysis or 405 nm absorbance for pNP-TMP hydrolysis using a FlexStation 3 microplate reader (Molecular Devices, Sunnyvale, Calif.). Data (relative fluorescence or absorbance) were then recorded as a mean value of the triplicates for each sample versus time. […] In the case of mechanism determination, the linear fluorescence data from time 10 minutes to 30 minutes were then transformed using a carboxyfluorescein standard curve to determine product concentration and plotted separately. Linear trend lines were inserted using Microsoft Excel, the slope of which represent the rates of reaction for each substrate concentration. This reaction rate data for each inhibitor concentration were then plotted against substrate (FS-3) concentration and simultaneously fitted via non-linear regression in the Michaelis-Menten equations for competitive, non-competitive, uncompetitive, and mixed-mode inhibition using GraphPad Prism version 5.0a. Mechanism of inhibition was determined by which curve fit had the best global fit (R^2 value).

LPA1 receptor = LPA1 receptor (Homo sapiens (Human), UniProt Q92633); experiment: LPA-mediated Ca2+ mobilization, LPA1 RH7777 cells; format: cell-based; conditions: for IC50: IC50 of compound in presence of EC50 concentration of LPA 18:1, read-out: EC50 or IC50 (μM), LPA1 RH7777; for Emax (% LPA), LPA1 RH7777: normalized to LPA 18:1 Emax
LPA1 receptor, sequence (Q92633 whole entry): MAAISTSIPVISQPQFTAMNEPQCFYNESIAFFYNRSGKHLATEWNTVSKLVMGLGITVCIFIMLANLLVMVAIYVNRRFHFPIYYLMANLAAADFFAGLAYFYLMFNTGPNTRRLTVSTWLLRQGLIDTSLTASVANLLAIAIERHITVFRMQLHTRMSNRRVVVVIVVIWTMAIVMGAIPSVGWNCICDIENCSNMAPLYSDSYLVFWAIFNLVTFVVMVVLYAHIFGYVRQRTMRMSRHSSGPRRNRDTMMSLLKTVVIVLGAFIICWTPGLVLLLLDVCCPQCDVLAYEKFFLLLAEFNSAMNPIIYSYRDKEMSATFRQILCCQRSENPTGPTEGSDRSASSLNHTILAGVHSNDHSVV
Description: Cell Culture: LPA1 and LPA3 RH7777 rat hepatoma cells were generated in-house as described previously^34 and maintained in DMEM supplemented with 10% FBS and 2 mM L-glutamine with 250 μg/ml G418. LPA2 MEF mouse embryonic fibroblast cells were also derived from LPA1 and LPA2 double knockout mouse embryos as described previously^35 and maintained in DMEM supplemented with 10% FBS, 2 mM L-glutamine, 100 U/ml penicillin and 100 μg/ml streptomycin. LPA4 CHO chinese hamster ovary cells were a generous gift from Dr. Takao Shimizu (Tokyo University, Tokyo, Japan) and were maintained in Ham's F12 medium supplemented with 10% FBS, 2 mM L-glutamine and 350 μg/ml G418. LPA5 B103 rate neuroblastoma cells were derived in house via lentiviral transduction of FLAG-tagged LPA5 and puromycin selection as published^36 and maintained in DMEM supplemented with 10% FBS and 0.4 μg/ml puromycin. All cells were maintained at 37° C. with 5% CO2 in a humidified atmosphere.
Calcium Mobilization: As published previously, LPAR activation leads to transient calcium mobilization. […] All cells were plated in triplicate in 96-well, black-wall plates at a density of 5×10^4 cells per well and allowed to adhere overnight. LPA1 and LPA3 RH7777 cells were plated in poly-L-lysine coated plates. LPA5 B103 cells were plated in Matrigel-coated plates. After adherence, cells were serum-deprived in Krebs buffer consisting of 10 mM HEPES, pH 7.4 with 120 mM NaCl; 5 mM KCl; 1.8 mM CaCl2; 0.62 mM MgSO4; 6 mM D-glucose. LPA1 RH7777, LPA3 RH7777 and LPA5 B103 cells were serum-deprived for 4 hours, while LPA2 MEF cells were serum-deprived for 1 hour, and LPA4 CHO cells were not serum-deprived. Fura 2-AM was then loaded for 30 minutes at a concentration of 4.5 μg/ml in Krebs buffer with 0.45% (v/v) Pluronic F-127 (and additionally 0.1% BSA and 2.5 mM Probenicid for LPA4 CHO cells), after which cells were switched to fresh Krebs buffer. […] Fluorescence corresponding to calcium mobilization was immediately monitored upon addition every 3.42 seconds over a span of 70 seconds total at excitation/emission wavelengths of 340/510 and 380/510 nm. […] GraphPad Prism version 5.0a was then used to plot the data and fit non-linear regression curves in a variable slope model in order to determine the pharmacodynamics (EC50 or IC50) of the compounds in Ca^2+ mobilization.

[2] = system: A2058 human melanoma cells; experiment: In vitro invasion assay (boyden chamber, matrigel); format: cell-based; conditions: recombinant ATX plus 1 μM 18:1 LPC, 20 h, read-out: IC50 (nM) in cell invasion assay
Description: The boyden chamber assay was used to assess the effect of three of the benzene sulfonamide analogues on cell invasion of A2058 human melanoma cells in vitro. The A2058 cells invade the matrigel layer in an LPA-dependent manner. Therefore, exogenous LPC and recombinant ATX was used as a source of LPA. Firstly, the compounds were screened at 10 μM concentration alongside BMP 22, a potent ATX inhibitor^31. […] Subsequently, dose response curves for compounds 3a, 3b and 14 were generated (FIG. 13B).
In vitro invasion assay—A2058 human melanoma cell line (gift from Dr. Timothy Clair, NCI, National Institutes of Health) was cultured in Dulbecco's modified Eagle's medium (DMEM) supplemented with 10% (V/V) FBS, 100 U/mL penicillin, 100 μg/mL streptomycin and 2 mM L-glutamine (Life Technologies). Cell invasion was performed using the 24-well BD Biocoat™ tumor invasion system (BD Biosciences, 8 μm-pore size). Briefly, the matrigel coating was rehydrated with PBS at 37° C. for 2 h. After removal of PBS, 5×10^4 A2058 cells in serum-free DMEM supplemented with 0.1% BSA were plated to each upper chamber. […] The fluorescent invaded cells were measured using the FLEXstation II plate reader (Molecular Devices) at excitation and emission wavelengths of 485 and 530 nm, respectively.

human recombinant ATX [3] = target: T1, human recombinant ATX; experiment: ATX inhibition, hydrolysis of FRET substrate FS-3; format: biochemical; conditions: for IC50: 1 μM FS-3, 4 nM human recombinant ATX, 1 hour time point, read-out: IC50 (nM ± SD) vs FS-3
Description: as §1, §2

Compound | pNP-TMP Inhibition (human recombinant ATX [1]) | IC50 (LPA1 receptor) [µM] | Emax (% LPA), LPA1 RH7777 (LPA1 receptor) [% LPA] | IC50 [2] [nM] | Mechanism (human recombinant ATX [3]; mechanism of inhibition, FS-3 0 to 10 μM, inhibitor 0, 0.5×IC50 or 2×IC50) | IC50 (human recombinant ATX [3]) | fold IC50 improvement relative to screening hit 918013 (human recombinant ATX [3]) | ATX inhibitory activity (in words) (human recombinant ATX [3])
O=C(Nc1cc(F)c(F)c(F)c1)c1cc(S(=O)(=O)N2CCOCC2)c(Cl)cc1Cl [Compound 3b, 2,4-dichloro-5-(morpholinosulfonyl)-N-(3,4,5-trifluorophenyl)benzamide] | sparing effects and None | 9.1 | 37.99 | 528 ± 13.9 | Competitive | – | – | –
COc1cc(NC(=O)c2cc(S(=O)(=O)N3CCOCC3)c(Cl)cc2Cl)cc(OC)c1OC [Compound 3e, 2,4-dichloro-5-(morpholinosulfonyl)-N-(3,4,5-trimethoxyphenyl)benzamide] | None | – | – | – | – | > 1000 nM | – | poorly active

Continued, values first:

pNP-TMP Inhibition (human recombinant ATX [1]) | IC50 (LPA1 receptor) [µM] | Emax (% LPA), LPA1 RH7777 (LPA1 receptor) [% LPA] | IC50 [2] [nM] | Mechanism (human recombinant ATX [3]; mechanism of inhibition, FS-3 0 to 10 μM, inhibitor 0, 0.5×IC50 or 2×IC50) | IC50 (human recombinant ATX [3]) | fold IC50 improvement relative to screening hit 918013 (human recombinant ATX [3]) | ATX inhibitory activity (in words) (human recombinant ATX [3]) | Compound
None | 3.96 | 38.58 | – | – | 83 nM and 83.7 nM | – | – | O=C(Nc1cc(F)c(Cl)c(F)c1)c1cc(S(=O)(=O)N2CCOCC2)c(Cl)cc1Cl [Compound 3f, 2,4-dichloro-N-(4-chloro-3,5-difluorophenyl)-5-(morpholinosulfonyl)benzamide]
None | – | – | 1478 ± 12.3 | – | 31.5 ± 2.11 nM | four-fold | – | O=C(Nc1ccc(F)c(F)c1)c1cc(S(=O)(=O)N2CCOCC2)c(Cl)cc1Cl [Compound 3a, 2,4-dichloro-N-(3,4-difluorophenyl)-5-(morpholinosulfonyl)benzamide]
None | 11.9 | 36.08 | – | – | 40.09 ± 0.33 nM | – | – | O=C(Nc1cc(Cl)c(F)c(Cl)c1)c1cc(S(=O)(=O)N2CCOCC2)c(Cl)cc1Cl [Compound 3g, 2,4-dichloro-N-(3,5-dichloro-4-fluorophenyl)-5-(morpholinosulfonyl)benzamide]
